Results published in patent US20030031689A1, “Method of skin exfoliation” (priority 2001, published 2003).

Tests used:
[1] = test system: Normal Human Dermal Fibroblasts(NHDF); assay: Glycosaminoglycan synthesis by 3H-glucosamine incorporation in fibroblast cultures; type: cell-based; conditions: 48 hours
Protocol: Both mannose and mannose-6-phosphate are tested at various levels from 0.01 mg/ml to 1 mg/ml for their ability to increase the amount of glycosaminoglycans in Normal Human Dermal Fibroblasts(NHDF), using TGF- at 5 and 10 ng/ml as a positive control. NHDF cells are seeded and grown to confluence in a 24 well plate prior to being treated with the test extracts(n=3). At the same time as the treatment, the cultures are labeled with […] of ^3H-glucosamine. The cultures are incubated for 48 hours and extensively washed to remove unbound ^3H-glucosamine prior to being lysed and counted on a scintillation counter. The resulting counts represent newly synthesized glycosaminoglycans. Since glucosamine is required for glycosaminoglycan synthesis, the radioactive glucosamine added to the culture will be incorporated into any glycosaminoglycans synthesized after the addition of the treatment samples. Relative protein levels are determined by comparing the absorbance at 280 nm, of the cell lysates, to the absorbances of a bovine serum albumin curve. […] TGF-, the positive control, is found to increase levels by 28% at 10 ng/ml.

[2] = test system: skin flakiness (stratum corneocytes on the back of the hand); assay: Reduction of skin flakiness (D-Squame discs, image analysis) after twice daily topical application to the hand; type: in vivo, human; conditions: used at 2%
Text: In tests conducted to compare the efficacy of various agents of this type, mannose-6-phosphate caused a reduction in skin flakiness that exceeded the reduction achieved by N-acetyl glucosamine, lactobionic acid, and various mixtures of alpha hydroxy acids, all used at the same or higher levels than the mannose-6-phosphate. In a representative test, mannose-6-phosphate used at 1% reduced skin flakiness, a common measure of exfoliation efficacy, at a level of 24% after two weeks of treatment and 36% at four weeks. […] Thus, mannose-6-phosphate is particularly and unexpectedly effective for desquamation.
Thirty female subjects between the ages of 21 and 65 are selected to test the efficacy of mannose-6-phosphate in reducing skin flakiness, an indicator of exfoliation efficacy. The subjects are instructed not to use moisturizers or any other products on their hands, and their baseline measurements are taken. […] At the end of two and four weeks the subjects return for testing without applying the product for at least 12 hours and they are re-evaluated under the same conditions. […]
To evaluate the efficacy of the treatment products, four D-Squame discs are firmly and evenly pressed on the back of each hand with a hand held uniform pressure device and removed by gently pulling away from the skin. […] Desquamation is evaluated from the D-Squame discs via an OPTIMA image analyzer. […]

Row | SMILES | increase of glycosaminoglycan levels (normalized to protein levels) ([1]; 0.1 mg/ml) | effect on glycosaminoglycan levels ([1]; levels lower and higher than 0.1 mg/ml (tested 0.01 mg/ml to 1 mg/ml)) | reduction in skin flakiness ([2]; after two weeks of treatment) | reduction in skin flakiness ([2]; at four weeks)
1 | O=C[C@@H](O)[C@@H](O)[C@H](O)[C@H](O)COP(=O)(O)O [mannose-6-phosphate] | 20% | did not have any significant effect |  | 
2 | O=C(O)[C@H](O)[C@@H](O)[C@H](O[C@@H]1O[C@H](CO)[C@H](O)[C@H](O)[C@H]1O)[C@H](O)CO [lactobionic acid] |  |  | 16% | 25%
